Measurements as given in US20120245137A1 (Zalicus Pharmaceuticals Ltd., priority 2009, published 2012).
pIC50: −log10 of the molar value.

Assays:
Format in all cases: cell-based
[1] = molecular target: human α1G T-type channels (Homo sapiens, UniProt O43497); assay: T-type calcium channel block, whole cell patch clamp, α1G; conditions: HEK cells stably expressing human α1G; mainly non-inactivated protocol; values above 10,000 nM represented as 10000
Summary of the method: (§1)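 Whole-cell T-type currents, stably transfected HEK 293 (human α1G/α1H), passage 4-20. Cmpd in external soln, 0.1-0.01% DMSO, local gravity perfusion after ~10 min rest. Two voltage protocols: non-inactivating (resting block), inactivation (voltage-dependent block).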

[2] = molecular target: human α1H T-type channels (Homo sapiens, UniProt O95180); assay: T-type calcium channel block, whole cell patch clamp, α1H; conditions: HEK cells stably expressing human α1H; mainly non-inactivated protocol; values above 10,000 nM represented as 10000
Summary of the method: as §1

[3] = molecular target: N-type calcium channel subunits (α1B, α2δ, and β3a) (Homo sapiens, UniProt Q00975); assay: Block of Cav2.2 channel, whole cell voltage clamp, manual and PatchXpress; conditions: Table 5; table follows Assay Example 3 (whole cell voltage clamp / PatchXpress); assay not given
Summary of the method: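 Percent block taken as current amplitude ratio with versus without compound, applied in rising doses; IC50 fitted where one cell received multiple doses. Protocol: 50 ms pulses to +20 mV at 0.067 Hz from […] or −90 mV holding; P/n leak subtraction, no junction-potential correction; manual and PatchXpress recordings.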

Sequence of human α1G T-type channels (O43497 whole entry, the tested form may be a part): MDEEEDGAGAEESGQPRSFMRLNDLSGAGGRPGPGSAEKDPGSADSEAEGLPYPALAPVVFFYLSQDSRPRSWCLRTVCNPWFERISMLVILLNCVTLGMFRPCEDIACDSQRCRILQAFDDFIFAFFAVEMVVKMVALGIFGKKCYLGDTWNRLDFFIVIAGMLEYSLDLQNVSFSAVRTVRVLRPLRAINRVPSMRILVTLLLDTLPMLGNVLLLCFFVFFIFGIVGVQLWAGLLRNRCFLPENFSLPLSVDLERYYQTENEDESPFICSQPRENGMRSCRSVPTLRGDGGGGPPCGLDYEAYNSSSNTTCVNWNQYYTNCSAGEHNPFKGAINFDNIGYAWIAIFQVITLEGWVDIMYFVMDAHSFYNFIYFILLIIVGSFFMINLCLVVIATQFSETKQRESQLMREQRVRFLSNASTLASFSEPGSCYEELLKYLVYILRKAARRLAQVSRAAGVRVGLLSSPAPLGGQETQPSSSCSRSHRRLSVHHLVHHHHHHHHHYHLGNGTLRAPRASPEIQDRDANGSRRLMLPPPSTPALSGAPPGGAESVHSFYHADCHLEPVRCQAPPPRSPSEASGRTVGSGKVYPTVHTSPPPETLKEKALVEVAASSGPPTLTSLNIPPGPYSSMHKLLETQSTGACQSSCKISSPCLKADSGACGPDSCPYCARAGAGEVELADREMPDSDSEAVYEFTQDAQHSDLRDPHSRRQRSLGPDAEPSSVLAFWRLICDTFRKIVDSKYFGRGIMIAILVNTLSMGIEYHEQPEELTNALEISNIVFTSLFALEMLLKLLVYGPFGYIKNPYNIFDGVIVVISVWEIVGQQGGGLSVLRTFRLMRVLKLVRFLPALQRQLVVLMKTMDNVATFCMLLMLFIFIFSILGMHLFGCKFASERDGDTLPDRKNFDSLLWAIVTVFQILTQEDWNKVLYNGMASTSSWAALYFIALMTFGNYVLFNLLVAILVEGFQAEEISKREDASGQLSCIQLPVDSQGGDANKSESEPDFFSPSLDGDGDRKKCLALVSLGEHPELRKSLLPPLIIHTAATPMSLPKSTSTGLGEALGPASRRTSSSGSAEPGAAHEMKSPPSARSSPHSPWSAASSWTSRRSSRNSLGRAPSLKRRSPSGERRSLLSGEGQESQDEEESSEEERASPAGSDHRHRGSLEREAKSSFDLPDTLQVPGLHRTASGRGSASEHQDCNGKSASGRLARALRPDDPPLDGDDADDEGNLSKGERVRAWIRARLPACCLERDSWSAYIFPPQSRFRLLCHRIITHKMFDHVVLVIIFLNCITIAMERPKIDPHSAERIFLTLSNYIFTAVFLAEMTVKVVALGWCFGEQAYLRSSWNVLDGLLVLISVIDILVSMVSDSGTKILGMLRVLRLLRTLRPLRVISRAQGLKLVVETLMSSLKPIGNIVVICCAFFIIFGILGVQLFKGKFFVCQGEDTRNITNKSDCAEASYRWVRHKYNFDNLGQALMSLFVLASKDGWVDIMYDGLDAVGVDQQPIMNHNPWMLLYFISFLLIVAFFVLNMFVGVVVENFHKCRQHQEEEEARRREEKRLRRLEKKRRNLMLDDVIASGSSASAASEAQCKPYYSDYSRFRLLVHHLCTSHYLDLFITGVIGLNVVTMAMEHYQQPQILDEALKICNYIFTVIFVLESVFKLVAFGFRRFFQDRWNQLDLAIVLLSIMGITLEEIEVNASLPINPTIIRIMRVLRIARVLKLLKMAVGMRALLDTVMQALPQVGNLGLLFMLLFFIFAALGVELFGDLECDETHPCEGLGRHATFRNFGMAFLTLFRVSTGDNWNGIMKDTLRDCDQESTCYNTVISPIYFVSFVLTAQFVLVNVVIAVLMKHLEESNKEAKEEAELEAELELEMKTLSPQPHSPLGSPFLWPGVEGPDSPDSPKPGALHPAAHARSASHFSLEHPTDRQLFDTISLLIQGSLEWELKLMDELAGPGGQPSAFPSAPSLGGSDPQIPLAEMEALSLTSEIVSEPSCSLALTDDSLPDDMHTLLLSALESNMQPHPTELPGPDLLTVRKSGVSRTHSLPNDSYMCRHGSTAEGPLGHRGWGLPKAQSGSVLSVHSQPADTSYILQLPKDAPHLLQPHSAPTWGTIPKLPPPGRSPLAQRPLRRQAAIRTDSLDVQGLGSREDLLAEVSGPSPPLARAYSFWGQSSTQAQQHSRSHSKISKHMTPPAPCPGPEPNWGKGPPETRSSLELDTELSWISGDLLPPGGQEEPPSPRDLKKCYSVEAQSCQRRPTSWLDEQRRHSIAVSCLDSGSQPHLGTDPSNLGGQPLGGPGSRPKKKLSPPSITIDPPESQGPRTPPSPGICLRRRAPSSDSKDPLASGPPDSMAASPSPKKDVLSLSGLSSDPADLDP
Sequence of human α1H T-type channels (O95180 whole entry): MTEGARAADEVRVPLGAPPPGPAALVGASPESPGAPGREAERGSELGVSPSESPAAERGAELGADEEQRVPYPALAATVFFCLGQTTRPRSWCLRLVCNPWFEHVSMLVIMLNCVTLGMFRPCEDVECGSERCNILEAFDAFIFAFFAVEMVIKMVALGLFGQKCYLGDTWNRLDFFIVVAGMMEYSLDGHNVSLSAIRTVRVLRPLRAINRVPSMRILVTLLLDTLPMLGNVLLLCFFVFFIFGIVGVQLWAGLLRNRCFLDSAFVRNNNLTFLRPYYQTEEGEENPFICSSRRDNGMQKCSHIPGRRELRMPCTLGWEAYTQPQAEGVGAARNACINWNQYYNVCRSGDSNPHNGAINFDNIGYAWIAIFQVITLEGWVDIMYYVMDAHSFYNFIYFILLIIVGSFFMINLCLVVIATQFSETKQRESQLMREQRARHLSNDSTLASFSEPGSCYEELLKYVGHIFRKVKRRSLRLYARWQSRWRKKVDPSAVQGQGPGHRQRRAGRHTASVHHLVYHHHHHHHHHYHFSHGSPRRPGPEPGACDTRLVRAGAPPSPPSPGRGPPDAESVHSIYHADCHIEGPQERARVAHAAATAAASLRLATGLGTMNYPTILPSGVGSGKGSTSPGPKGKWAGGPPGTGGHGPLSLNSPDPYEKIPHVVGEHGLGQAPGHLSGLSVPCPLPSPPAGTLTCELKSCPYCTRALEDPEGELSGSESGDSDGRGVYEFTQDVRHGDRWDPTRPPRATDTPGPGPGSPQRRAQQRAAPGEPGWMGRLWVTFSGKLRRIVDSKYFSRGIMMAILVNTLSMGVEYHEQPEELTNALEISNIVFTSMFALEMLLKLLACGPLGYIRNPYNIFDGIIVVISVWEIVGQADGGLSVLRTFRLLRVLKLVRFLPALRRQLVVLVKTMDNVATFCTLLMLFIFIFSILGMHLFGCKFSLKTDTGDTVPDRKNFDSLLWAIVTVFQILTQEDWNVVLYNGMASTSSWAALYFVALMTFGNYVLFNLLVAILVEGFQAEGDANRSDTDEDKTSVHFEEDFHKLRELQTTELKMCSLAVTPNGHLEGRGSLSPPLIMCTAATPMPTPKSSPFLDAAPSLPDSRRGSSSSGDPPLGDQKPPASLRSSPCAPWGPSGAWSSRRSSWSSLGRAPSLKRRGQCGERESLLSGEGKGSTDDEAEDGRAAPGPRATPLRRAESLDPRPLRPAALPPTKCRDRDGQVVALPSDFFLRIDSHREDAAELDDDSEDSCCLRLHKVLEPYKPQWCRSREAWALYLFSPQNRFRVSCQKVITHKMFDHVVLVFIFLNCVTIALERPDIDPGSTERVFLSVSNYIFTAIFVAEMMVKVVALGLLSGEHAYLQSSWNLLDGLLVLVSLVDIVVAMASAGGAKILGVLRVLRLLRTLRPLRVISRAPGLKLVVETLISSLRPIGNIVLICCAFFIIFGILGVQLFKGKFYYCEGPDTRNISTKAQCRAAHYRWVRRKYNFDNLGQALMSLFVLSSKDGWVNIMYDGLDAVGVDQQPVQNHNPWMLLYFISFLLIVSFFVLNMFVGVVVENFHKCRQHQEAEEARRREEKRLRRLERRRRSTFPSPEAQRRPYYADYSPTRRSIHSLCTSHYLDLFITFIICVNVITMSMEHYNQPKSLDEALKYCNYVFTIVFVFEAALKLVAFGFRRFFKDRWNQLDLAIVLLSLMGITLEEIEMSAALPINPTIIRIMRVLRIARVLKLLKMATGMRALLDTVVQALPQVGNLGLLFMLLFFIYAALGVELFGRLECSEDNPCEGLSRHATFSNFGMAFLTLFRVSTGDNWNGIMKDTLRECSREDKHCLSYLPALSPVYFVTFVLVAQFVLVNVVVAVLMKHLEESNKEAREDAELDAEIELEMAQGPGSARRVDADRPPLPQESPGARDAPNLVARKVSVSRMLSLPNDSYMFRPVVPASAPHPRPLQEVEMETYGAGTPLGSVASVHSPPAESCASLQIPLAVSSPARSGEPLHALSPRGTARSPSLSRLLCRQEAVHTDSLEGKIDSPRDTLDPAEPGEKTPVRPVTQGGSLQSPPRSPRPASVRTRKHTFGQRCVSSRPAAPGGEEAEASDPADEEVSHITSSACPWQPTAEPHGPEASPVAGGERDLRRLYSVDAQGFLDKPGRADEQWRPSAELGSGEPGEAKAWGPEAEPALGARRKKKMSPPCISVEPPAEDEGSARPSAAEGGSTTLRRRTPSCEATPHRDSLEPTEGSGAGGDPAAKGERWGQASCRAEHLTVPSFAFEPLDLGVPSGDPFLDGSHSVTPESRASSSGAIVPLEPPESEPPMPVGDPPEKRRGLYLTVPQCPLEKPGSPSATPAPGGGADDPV

SMILES	pIC50 [1]	pIC50 [2]	IC50 [3]
CC(C)S(=O)(=O)c1cc(C(F)(F)F)cnc1C(=O)N[C@H]1CC[C@@H](S(=O)(=O)c2cccc(C(F)(F)F)c2)CC1 [Compound 339, 3-(isopropylsulfonyl)-5-(trifluoromethyl)-N-((1S,4S)-4-(3-(trifluoromethyl)phenylsulfonyl)cyclohexyl) picolinamide]	5.28	5.48	220 nM
CC(C)S(=O)(=O)c1cc(C(F)(F)F)cnc1C(=O)N[C@H]1CC[C@H](S(=O)(=O)c2cccc(C(F)(F)F)c2)CC1 [Compound 340, 3-(isopropylsulfonyl)-5-(trifluoromethyl)-N-((1R,4R)-4-(3-(trifluoromethyl)phenylsulfonyl)cyclohexyl) picolinamide]	5.01	5.50	2010 nM
CC(C)S(=O)(=O)c1cc(C(F)(F)F)cnc1C(=O)N[C@H]1CC[C@H](CS(=O)(=O)c2cccc(C(F)(F)F)c2)CC1 [Compound 341, 3-(isopropylsulfonyl)-5-(trifluoromethyl)-N-((1R,4R)-4-((3-(trifluoromethyl)phenylsulfonyl)methyl)cyclohexyl)picolinamide]	5.66	5.69	510 nM
CC(C)S(=O)(=O)c1cc(C(F)(F)F)cnc1C(=O)N[C@H]1CC[C@@H](CS(=O)(=O)c2cccc(C(F)(F)F)c2)CC1 [Compound 342, 3-(isopropylsulfonyl)-5-(trifluoromethyl)-N-((1S,4S)-4-((3-(trifluoromethyl)phenylsulfonyl)methyl)cyclohexyl)picolinamide]	5.77	6.12	720 nM
O=C(N[C@H]1C[C@H](CS(=O)(=O)c2cccc(C(F)(F)F)c2)C1)c1ccc(Cl)c(F)c1 [Compound 343, 4-chloro-3-fluoro-N-((1R,3R)-3-((3-(trifluoromethyl)phenylsulfonyl)methyl)cyclobutyl)benzamide]	6.20	6.57	1450 nM
O=C(N[C@H]1C[C@H](CS(=O)(=O)c2cccc(C(F)(F)F)c2)C1)c1cc(F)cc(Cl)c1 [Compound 344, 3-chloro-5-fluoro-N-((1R,3R)-3-((3-(trifluoromethyl)phenylsulfonyl)methyl)cyclobutyl)benzamide]	< 5.00	< 5.00	680 nM
O=C(N[C@H]1C[C@H](CS(=O)(=O)c2cccc(C(F)(F)F)c2)C1)c1ccc(F)c(C(F)(F)F)c1 [Compound 345, 4-fluoro-3-(trifluoromethyl)-N-((1R,3R)-3-((3-(trifluoromethyl)phenylsulfonyl)methyl)cyclobutyl)benzamide]	5.26	5.71	580 nM
O=C(N[C@H]1C[C@H](CS(=O)(=O)c2cccc(C(F)(F)F)c2)C1)c1ccc(C(F)(F)F)nc1 [Compound 346, 6-(trifluoromethyl)-N-((1R,3R)-3-((3-(trifluoromethyl)phenylsulfonyl)methyl)cyclobutyl)nicotinamide]	5.90	6.39	5540 nM
O=C(N[C@H]1C[C@H](CS(=O)(=O)c2cccc(C(F)(F)F)c2)C1)c1ccc(C(F)(F)F)cn1 [Compound 347, 5-(trifluoromethyl)-N-((1R,3R)-3-((3-(trifluoromethyl)phenylsulfonyl)methyl)cyclobutyl)picolinamide]	5.63	6.59	1120 nM
O=C(N[C@H]1C[C@H](CS(=O)(=O)c2cccc(C(F)(F)F)c2)C1)c1ccc(F)c(Cl)c1 [Compound 348, 3-chloro-4-fluoro-N-((1R,3R)-3-((3-(trifluoromethyl)phenylsulfonyl)methyl)cyclobutyl)benzamide]	5.34	6.27	1030 nM
COc1cc(F)cc(C(=O)N[C@H]2C[C@H](CS(=O)(=O)c3cccc(C(F)(F)F)c3)C2)c1 [Compound 349, 3-fluoro-5-methoxy-N-((1R,3R)-3-((3-(trifluoromethyl)phenylsulfonyl)methyl)cyclobutyl)benzamide]	< 5.00	< 5.00	890 nM
Cn1nc(C(F)(F)F)cc1C(=O)N[C@H]1C[C@H](CS(=O)(=O)c2cccc(C(F)(F)F)c2)C1 [Compound 350, 1-methyl-3-(trifluoromethyl)-N-((1R,3R)-3-((3-(trifluoromethyl)phenylsulfonyl)methyl)cyclobutyl)-1H-pyrazole-5-carboxamide]	< 5.00	< 5.00	1410 nM
CC1(NC(=O)CN[C@H]2C[C@H](CS(=O)(=O)c3cccc(C(F)(F)F)c3)C2)CCC1 [Compound 351, N-(1-methylcyclobutyl)-2-((1R,3R)-3-((3-(trifluoromethyl)phenylsulfonyl)methyl)cyclobutylamino)acetamide]	< 5.00	5.13	2770 nM
CC(C)(C)NC(=O)CN[C@H]1C[C@H](CS(=O)(=O)c2cccc(C(F)(F)F)c2)C1 [Compound 352, N-tert-butyl-2-((1R,3R)-3-((3-(trifluoromethyl)phenylsulfonyl)methyl)cyclobutylamino)acetamide]	6.19	6.64	3760 nM
O=C(CN[C@H]1C[C@H](CS(=O)(=O)c2cccc(C(F)(F)F)c2)C1)NC1CCCCC1 [Compound 353, N-cyclohexyl-2-((1R,3R)-3-((3-(trifluoromethyl)phenylsulfonyl)methyl)cyclobutylamino)acetamide]	5.30	5.70	3210 nM
O=C(NC[C@H]1C[C@H](S(=O)(=O)c2cccc(C(F)(F)F)c2)C1)c1ccc(F)c(C(F)(F)F)c1 [Compound 354, 4-fluoro-3-(trifluoromethyl)-N-(((1R,3R)-3-(3-(trifluoromethyl)phenylsulfonyl)cyclobutyl)methyl)benzamide]	< 5.00	5.15	140 nM
Cn1nc(C(F)(F)F)cc1C(=O)NC[C@H]1C[C@H](S(=O)(=O)c2cccc(C(F)(F)F)c2)C1 [Compound 355, 1-methyl-3-(trifluoromethyl)-N-(((1R,3R)-3-(3-(trifluoromethyl)phenylsulfonyl)cyclobutyl)methyl)-1H-pyrazole-5-carboxamide]	5.84	6.13	190 nM
O=C(NC[C@H]1C[C@H](S(=O)(=O)c2cccc(C(F)(F)F)c2)C1)c1ccc(F)c(Cl)c1 [Compound 357, 3-chloro-4-fluoro-N-(((1R,3R)-3-(3-(trifluorornethyl)phenylsulfonyl)cyclobutyl)methyl)benzamide]	< 5.00	< 5.00	200 nM
O=C(NC[C@H]1C[C@H](S(=O)(=O)c2cccc(C(F)(F)F)c2)C1)c1ccc(C(F)(F)F)cn1 [Compound 358, 5-(trifluoromethyl)-N-(((1R,3R)-3-(3-(trifluoromethyl)phenylsulfonyl)cyclobutyl)methyl)picolinamide]	5.08	< 5.00	190 nM
O=C(NC[C@H]1C[C@H](S(=O)(=O)c2cccc(C(F)(F)F)c2)C1)c1cn2cc(C(F)(F)F)ccc2n1 [Compound 360, 6-(trifluoromethyl)-N-(((1R,3R)-3-(3-(trifluoromethyl)phenylsulfonyl)cyclobutyl)methyl)imidazo[l,2-a]pyridine-2-carboxamide]	< 5.00	< 5.00	190 nM
O=C(NC[C@H]1C[C@H](S(=O)(=O)c2cccc(C(F)(F)F)c2)C1)c1ccnc(C(F)(F)F)c1 [Compound 361, 2-(trifluoromethyl)-N-(((1R,3R)-3-(3-(trifluoromethyl)phenylsulfonyl)cyclobutyl)methyl)isonicotinamide]	5.79	6.70	460 nM
CS(=O)(=O)c1cc(C(F)(F)F)cnc1C(=O)NC[C@H]1C[C@H](S(=O)(=O)c2cccc(C(F)(F)F)c2)C1 [Compound 364, 3-(methylsulfonyl)-5-(trifluoromethyl)-N-(((1R,3R)-3-(3-(trifluoromethyl)phenylsulfonyl)cyclobutyl)methyl)picolinamide]	6.28	6.68	1400 nM
O=C(NC[C@H]1C[C@H](S(=O)(=O)c2cccc(C(F)(F)F)c2)C1)c1ccc(Cl)c(OC(F)(F)F)c1 [Compound 366, 4-chloro-3-(trifluoromethoxy)-N-(((1R,3R)-3-(3-(trifluoromethyl)phenylsulfonyl)cyclobutyl)methyl)benzamide]	< 5.00	< 5.00	190 nM
O=C(NC[C@H]1C[C@H](S(=O)(=O)c2cccc(C(F)(F)F)c2)C1)c1ccnn1CC(F)(F)F [Compound 367, 1-(2,2,2-trifluoroethyl)-N-(((1R,3R)-3-(3-(trifluoromethyl)phenylsulfonyl)cyclobutyl)methyl)-1H-pyrazole-5-carboxamide]	6.05	6.46	850 nM
CS(=O)(=O)c1cc(Cl)ccc1C(=O)NC[C@H]1C[C@H](S(=O)(=O)c2cccc(C(F)(F)F)c2)C1 [Compound 368, 4-chloro-2-(methylsulfonyl)-N-(((1R,3R)3-(3-(trifluoromethyl)phenylsulfonyl)cyclobutyl)methyl)benzamide]	6.02	6.40	940 nM
O=C(NC[C@H]1C[C@H](S(=O)(=O)c2cccc(C(F)(F)F)c2)C1)c1ccc(Cl)c(Cl)c1 [Compound 369, 3,4-dichloro-N-(((1R,3R)-3-(3-(trifluoromethyl)phenylsulfonyl)cyclobutyl)methyl)benzamide]	< 5.00	< 5.00	160 nM
